Assay results taken from patent publication US10799456B2, “Multiple drug lipid nanoparticle composition and related methods for extended drug levels in blood and lymph tissue” (priority 2015, dated 2020).

Key:
[1] = % Drug association to particles by assembly method; format: physicochemical
Excerpt: Select one or two drugs hydrophilic and water soluble (Class 2) drugs listed in Table 19 (for example, tenofovir and/or emtricitabine and/or lamivudine). • 3. Select the excipient combination (for example, 9 parts DSPC and 1 part PEG-DSPE). • 4. Prepare a single-phase miscible solvent that enables full solubilization of the chosen water-insoluble Class 1 drugs and water soluble Class 2 drugs plus the excipients from step 3. Examples include CHCl3:Methanol:Water (65:35:4); CHCl3:Ethanol:Water (65:35:4); CHCl3:Propanol:Water (65:35:4); and CHCl3:Hexanol:Water (65:35:4). • 5. The components in Steps 1, 2 and 3 are solubilized with the miscible solvent in step 4. • 6. The drugs (steps 1 and 2) as well as excipients (step 3) and the miscible solvent (step 4) are dried under reduced pressure with assistance of a combination of heat, reduced pressure and/or aerosolization to provide for uniformity and efficiency of drying. • 7. The dehydrated composition is heated above gel-to-liquid phase transition temperature of the excipient mixture (e.g., 50° C.). • 8. A buffered saline solution is prepared and the temperature is equilibrated to the same temperature as dehydrated composition. • 9. The buffered saline solution and dehydrated composition are gradually combined and maintained at the defined (e.g., 50° C.) for 3 hr. • 10. The resulting hydrated multi-drug lipid nanoparticles are size-reduced by sheering or forcing through small orifice or pressurized filter apparatus while maintaining at the defined temperature (in liquid phase of lipidic excipients).

[2] = Octanol-buffer distribution coefficient (shake-flask); format: physicochemical; settings: room temperature
Description: The octanol-buffer drug distribution coefficient at room temperature was determined by a small-scale, shake-flask method described by Dittert L W, et al. Phase Solubility Technique in Studying the Formation of Complex Salts of Triamterene. Journal of pharmaceutical sciences. […] Briefly, phosphate-buffered saline (PBS) at pH 3, 5, and 7.4 was used as the aqueous phase. […] The mixture was centrifuged at 14,000 rpm (18,078 g) (Beckman Coulter™ Microfuge® 18 centrifuge, Beckman Coulter Inc., Brea, Calif.) to separate octanol and the aqueous phase. The drug concentration in the two phases was determined with high-performance liquid chromatography tandem mass spectrometry (HPLC/MS/MS). The distribution coefficient was calculated as the ratio of the drug concentration in the octanol phase to the drug concentration in the aqueous phase. Triplicate samples were used at each pH.

[3] = DPH fluorescence anisotropy, lipid phase transition temperature; format: physicochemical
Description: To evaluate the change in membrane fluidity due to drug insertion into the lipid membrane, 0.1% 1,6-diphenyl-1,3,5-hexatriene (DPH) was used as an intra-membrane probe.^18,20 Briefly, to incorporate DPH into the lipid membrane, 2 μL of 2 mM DPH in tetrahydrofuran was added to the lipid nanoparticle suspension with or without drug. The final preparation was incubated at 60° C. (above the 55° C. DSPC phase transition temperature) for 30 min, then slowly cooled to room temperature over 15 min. […] A water-jacketed cuvette holder connected to a circulating water bath (PolyScience, model 1162, Niles, Ill.) was used to control the temperature within the cuvette, which was measured by a digital thermometer. The cuvette was allowed to equilibrate for 10 min before taking each temperature reading. The fluorescence intensities, both parallel and perpendicular to the emission light, were measured continuously with a F-4500 fluorescence spectrometer (Hitachi, Minato-ku, Tokyo, Japan) set at kex/em=360/430 nm; both excitation and emission slits were 5 nm. Fluorescence anisotropy response, r, was calculated by the equation: […]
The fluorescence anisotropy response versus temperature curve was generated by non-linear regression using SigmaPlot software (11.0 version, Systat Software, Inc., San Jose, Calif.). […]

[4] = Drug incorporation efficiency into lipid-drug nanoparticles (dialysis); format: physicochemical; settings: for Incorporation efficiency (%): DSPC:DSPE-mPEG2000 8:2
Description: J Acquir Immune Defic Syndr. […] Journal of pharmaceutical sciences. […] The AAPS journal. […] Residual solvent was removed overnight by vacuum desiccation. The dried lipid-drug film was then rehydrated with 0.9% NaCl containing 20 mM sodium bicarbonate (pH 7.4). The lipid-drug samples were allowed to hydrate at 60° C. for 2 h. Then samples were sonicated (laboratory scale) or homogenized (preclinical scale) to achieve a homogenous suspension.
The incorporation efficiency was calculated as the ratio of the amount of incorporated drug over the total amount of drug loaded multiplied by 100%.

[5] = Particle size by photon correlation spectroscopy; format: physicochemical
Description: The mean particle size of lipid-drug nanoparticles and liposome control was determined by photon correlation spectroscopy (PCS) using a NICOMP™ 380ZLS instrument (NICOMP Particle Sizing Systems, Santa Barbara, Calif.). […] Samples were diluted with the same buffer to an identical final volume to analyze concentration effects. The light scattering data were analyzed based on intensity-weight NICOMP size distribution and expressed as a mean±SD.
Briefly, lipids and protease inhibitors were dissolved in chloroform:ethanol (3:1 v/v) and PMPA was added from a stock solution of 30 mg/ml in aqueous 150 mM NaHCO3. Solvent was removed by rotary evaporation and vacuum desiccation. The dry film was rehydrated to 200 mM lipid in 0.4% NaCl with 20 mM NaHCO3 buffer at 60° C. Particle size was reduced at 60° C. by bath sonication (laboratory scale) or high-pressure homogenization using an Emulsiflex-05 (Avestin, Ottawa, Canada) (clinical scale). LNPs were maintained at 60° C. to anneal for 30 min prior to cooling and stored at 4° C. Particle size was determined by photon correlation spectroscopy using a NICOMP 380 ZLS (Particle Sizing Systems, Santa Barbara, Calif.).

[6] = Tables 20 and 21; cited from earlier work

In the case of Darunavir [Darunavir (DRV)], the “% Drug Association to Particles, LNPs from mixture of dual solvent method” value [1] is reported as 97%, the “Log D (measured)” value ([2]; pH 3, octanol/PBS) is reported as 2.98 and the “Log D (measured)” value ([2]; pH 5, octanol/PBS) is reported as 2.80. For the same substance, the “Log D (measured)” value ([2]; pH 7.4, octanol/PBS) was 2.84, the “reduction of TC” value ([3]; lipid-to-drug 8:1, vs control LNPs) was 1.6 °C and the “phase transition temperature (TC)” value ([3]; lipid-to-drug molar ratio 8:1) was 53.3 °C. For the same substance, the “Incorporation efficiency (%)” value ([4]; lipid:drug 5:1 mol/mol) was 88.1 ± 3.8%, the “Incorporation efficiency (%)” value ([4]; lipid:drug 5:1 mol/mol, listed as DRV) was 88.1% and the “Incorporation efficiency (%)” value ([4]; lipid:drug 8:1 mol/mol) was 94.4 ± 2.8%. For the same substance, the “Incorporation efficiency (%)” value ([4]; lipid:drug 8:1 mol/mol, listed as DRV) was 94.4%, the “Incorporation efficiency (%)” value ([4]; lipid:drug 20:1 mol/mol) was 96.6 ± 4.8% and the “Incorporation efficiency (%)” value ([4]; lipid:drug 20:1 mol/mol, listed as DRV) was 96.6%. The drug incorporation efficiency ([4]; prepared at 0.5 mM lipid) was 58%, the drug incorporation efficiency ([4]; prepared at 5 mM lipid) was 95% and the “Particle size (nm)” value ([5]; lipid:drug 5:1 mol/mol) was 33.6 ± 3.1 nm. For the same substance, the “Particle size (nm)” value ([5]; lipid:drug 8:1 mol/mol) was 35.6 ± 3.9 nm, the “Particle size (nm)” value ([5]; lipid:drug 20:1 mol/mol) was 35.6 ± 3.7 nm and the “Hydrophobicity (Log P)” value [6] was 1.8.
